“And” between values parts separate entries of the source, which are not always exact repeats. Equal values may be shown once. Read-outs that look alike come from different tables or passages of the source.
Legend:
Staph. Villaluz = test: MIC vs Staph. Villaluz; type: cell-based
E. coli [1] = test: MIC vs E. coli; type: cell-based
Strep. faecalis = test: MIC vs Strep. faecalis; type: cell-based; conditions: Enterococcus faecalis
Serratia marc. = test: MIC vs Serratia marc.; type: cell-based
Pseudomonas sp. = test: MIC vs Pseudomonas sp.; type: cell-based
Klebs. pneumo. [2] = test: MIC vs Klebs. pneumo.; type: cell-based
S. aureus = test: MIC vs S. aureus; type: cell-based; conditions: Staphylococcus aureus
Klebs. pneumo. [3] = test: ED50 vs Klebs. pneumo.; type: in vivo
Salmonella = test: MIC vs Salmonella; type: cell-based
E. coli [4] = test: ED50 vs E. coli; type: in vivo; conditions: Escherichia coli
Entero. aerog. = test: MIC vs Entero. aerog.; type: cell-based
Shigella = test: MIC vs Shigella; type: cell-based
[5] = Escherichia coli, second column, read-out: MIC

| Compound | MIC (Staph. Villaluz) [µg/mL] | MIC (E. coli [1]) [µg/mL] | MIC (E. coli [1]; [5]) [µg/mL] | MIC (Strep. faecalis) [µg/mL] | MIC (Serratia marc.) [µg/mL] | MIC (Pseudomonas sp.) [µg/mL] | MIC (Klebs. pneumo. [2]; second column) [µg/mL] | MIC (S. aureus; first column) [µg/mL] | MIC (S. aureus; second column) [µg/mL] | ED50 (Klebs. pneumo. [3]; po) [mg/kg] | ED50 (Klebs. pneumo. [3]; sc) [mg/kg] | MIC (Salmonella) | ED50 (E. coli [4]; po) [mg/kg] | ED50 (E. coli [4]; sc) [mg/kg] | MIC (Entero. aerog.) [µg/mL] | MIC (E. coli [1]; Escherichia coli, first column, read-out: MIC) [µg/mL] | MIC (Klebs. pneumo. [2]; first column) [µg/mL] | MIC (Shigella) [µg/mL] |
| --- | --- | --- | --- | --- | --- | --- | --- | --- | --- | --- | --- | --- | --- | --- | --- | --- | --- | --- |
| CC(=O)OCC1=C(C(=O)O)N2C(=O)[C@@H](NC(=O)C(N)c3ccc(CO)cc3)[C@H]2SC1 (mixture of isomers) [Compound 37316, 7β-(DL-α-amino-p-hydroxymethylphenylacetamido)cephalosporanic acid] | 100 | 50 | 25 | 200 | > 200 | > 200 | 25 | 12.5 | 6.3 | > 50 | 20 | 12.5 µg/mL and 25 μg/me | > 50 | 8.7 |  |  |  |  |
| CC1=C(C(=O)O)N2C(=O)[C@@H](NC(=O)C(N)c3ccc(CO)cc3)[C@H]2SC1 (mixture of isomers) [Compound 47216, 7β-(DL-α-Amino-p-hydroxymethylphenylacetamido)desacetoxycephalosporanic acid] | 200 |  | 50 |  | > 200 | > 200 | 25 | 6.3 | 25 | 50 | > 50 | 25 µg/mL | 29 | 33 | 50 | 25 | 25 | 25 |
